Assay results: US20140228381A1, “METHODS OF CONTROLLING INSECTS OF THE FAMILY CURCOLIONIDAE” (SYNGENTA PARTICIPATIONS AG, priority 2011, published 2014)

Columns and labels:
Assay type in all cases: in vivo
Heliothis virescens = experiment: BP80 Heliothis virescens ovo-larvicide, feeding/contact activity, curative; details: eggs on artificial diet, 5 days incubation
Experimental: (§1) BP80s (break points for 80% mortality) were obtained for Pyrifluquinazon and Flonicamid against the following pests: Heliothis virescens, Plutella xylostella, Tetranychus urticae and Cydia pomonella. The specific method used for each pest is outlined below. Heliothis virescens (Tobacco Budworm): ovo-larvicide, feeding/contact activity, curative Eggs (0-24 h old) are placed in a 24-well microtiter plate on artificial diet and treated with test solutions by pipetting. After an incubation period of 5 days, samples are checked for egg mortality and larval mortality. Selectable application rates: 500-0.05 ppm Plutella xylostella (Diamondback Moth): larvicide, feeding/residual contact activity, preventative 24-well microtiter plates with artificial diet are treated with test solutions by pipetting. After drying, the plates are infested with L2 larvae (10-15 per well). After an incubation period of 5 days, samples are checked for larval mortality. Selectable application rates: 500-0.05 ppm Tetranychus urticae (Two-Spotted Spider Mite): Mixed Population feeding/contact activity, preventative Bean leaf discs on agar in 24-well microtiter plates are sprayed with test solutions. After drying, the leaf discs are infested with mite populations of mixed ages. 8 days later, discs are checked for egg mortality, larval mortality, and adult mortality. […]

Plutella xylostella = experiment: BP80 Plutella xylostella larvicide, feeding/residual contact activity, preventative; details: L2 larvae on artificial diet, 5 days incubation
Experimental: as §1

Tetranychus urticae = experiment: BP80 Tetranychus urticae mixed population, feeding/contact activity, preventative; details: bean leaf discs, mixed ages, 8 days
Experimental: as §1

Cydia pomonella = experiment: BP80 Cydia pomonella larvicide, contact/feeding activity, preventative; details: L1 larvae on diet cubes, 14 days after infestation
Experimental: as §1

Anthonomus grandis [1] = experiment: B.2 field trial, insecticidal activity against Anthonomus grandis in cotton; details: 75 g ai/ha, 50% WG
Experimental: Trials were carried out in a randomized complete block design, each comprising of 4 replicates, plot size of 30 m^2. Application was carried out with a pressurized knap sack sprayer. 200 liters of spray volume was applied per ha. 4 applications were carried out in 5 days interval. Flonicamid was applied as a 50% WG Efficacy was evaluated 2 days after 2nd application and 4 days after 4th application. 50 squares were counted per plot and the % reduction of damaged squares in comparison to untreated control was calculated after the ABBOTT formula.

Anthonomus grandis [2] = experiment: B.3 field trial, insecticidal activity against Anthonomus grandis in cotton; details: 75 g ai/ha, 50% WG
Experimental: (§2) Trials were carried out in a randomized complete block design, each comprising of 4 replicates and a plot size of 30 m^2. Application was carried out with a pressurized knap sack sprayer. 200 liters of spray volume was applied per ha. 3 applications were carried out in 5 days interval, the first application at BBCH 51. Flonicamid was applied as a 50% WG. Efficacy was evaluated 2 days after 2nd and 5 days after 3rd application. 50 squares were counted per plot and the percentage reduction of damaged squares in comparison to untreated control was calculated after the ABBOTT formula.

Anthonomus grandis [3] = experiment: B.4 field trial, insecticidal activity against Anthonomus grandis in cotton
Experimental: as §2, with “4 replicates,” for “4 replicates and a”, “ha. 4” for “ha. 3”, “50% WG, and Pyrifluquinaon as a 10% WP.” for “50% WG.”, “after 4th” for “after 2nd”, “and 7” for “and 5”, “after 4th” for “after 3rd”

Anthonomus adults = experiment: B.5 immobility effect, contact spray on Anthonomus adults; details: 300 ppm contact spray; for no of insects at infestation site (A) / no of insects capable of leaving the infestation site (B) + (C) / no of insects in test arena, not on diet (C) / no of insects on diet (B): 50 beetles
Experimental: In this test 50 freshly hatched beetles were treated with FLON (IF 050 formulation) and PYQU (VVG 50 formulation). Using a turntable spray, 300 ppm of a 200 g ai/ha formulation were sprayed directly on the beetles. The control beetles (“check”) were sprayed with water. The petri dish was then placed in the test arena next to which was placed a diet situated 23 cm above ground. After a certain time periods shown below in the table, the number of beetles on different sites was counted: […]

Structure (SMILES): N#CCNC(=O)c1cnccc1C(F)(F)F [Flonicamid, N-(cyanomethyl)-4-(trifluoromethyl)-3-pyridinecarboxamide]
- BP80 (break point for 80% mortality) (Heliothis virescens): >200 ppm
- BP80 (break point for 80% mortality) (Plutella xylostella): >200 ppm
- BP80 (break point for 80% mortality) (Tetranychus urticae): >200 ppm
- BP80 (break point for 80% mortality) (Cydia pomonella): >50 ppm
- % reduction of damaged squares (Anthonomus grandis [1]; 2 days after 2nd application): 50%
- % reduction of damaged squares (Anthonomus grandis [1]; 4 days after 4th application): 57%
- % reduction of damaged squares (Anthonomus grandis [2]; 2 days after 2nd application): 67%
- % reduction of damaged squares (Anthonomus grandis [2]; 5 days after 3rd application): 52%
- % reduction of damaged squares (Anthonomus grandis [3]; 75 g ai/ha, 2 days after 4th application): 65%
- % reduction of damaged squares (Anthonomus grandis [3]; 75 g ai/ha, 7 days after 4th application): 50%
- % reduction of damaged squares (Anthonomus grandis [3]; 150 g ai/ha, 2 days after 4th application): 81%
- % reduction of damaged squares (Anthonomus grandis [3]; 150 g ai/ha, 7 days after 4th application): 52%
- immobility effect disappeared with time (rank order) (Anthonomus adults): PYQU>FLON
- no of insects at infestation site (A) (Anthonomus adults; 3 hours): 37
- no of insects capable of leaving the infestation site (B) + (C) (Anthonomus adults; 3 hours): 13
- no of insects in test arena, not on diet (C) (Anthonomus adults; 3 hours): 11
- no of insects on diet (B) (Anthonomus adults; 3 hours): 2
- no of insects at infestation site (A) (Anthonomus adults; 6 hours): 44
- no of insects capable of leaving the infestation site (B) + (C) (Anthonomus adults; 6 hours): 6
- no of insects in test arena, not on diet (C) (Anthonomus adults; 6 hours): 3
- no of insects on diet (B) (Anthonomus adults; 6 hours): 3
- no of insects at infestation site (A) (Anthonomus adults; 24 hours): 37
- no of insects capable of leaving the infestation site (B) + (C) (Anthonomus adults; 24 hours): 13
- no of insects in test arena, not on diet (C) (Anthonomus adults; 24 hours): 6
- no of insects on diet (B) (Anthonomus adults; 24 hours): 7
- no of insects at infestation site (A) (Anthonomus adults; 32 hours): 21
- no of insects capable of leaving the infestation site (B) + (C) (Anthonomus adults; 32 hours): 29
- no of insects in test arena, not on diet (C) (Anthonomus adults; 32 hours): 3
- no of insects on diet (B) (Anthonomus adults; 32 hours): 26
- no of insects at infestation site (A) (Anthonomus adults; 48 hours): 14
- no of insects capable of leaving the infestation site (B) + (C) (Anthonomus adults; 48 hours): 36
- no of insects in test arena, not on diet (C) (Anthonomus adults; 48 hours): 6
- no of insects on diet (B) (Anthonomus adults; 48 hours): 30
- no of insects at infestation site (A) (Anthonomus adults; 52 hours): 10
- no of insects capable of leaving the infestation site (B) + (C) (Anthonomus adults; 52 hours): 40
- no of insects in test arena, not on diet (C) (Anthonomus adults; 52 hours): 3
- no of insects on diet (B) (Anthonomus adults; 52 hours): 37
- no of insects at infestation site (A) (Anthonomus adults; 72 hours): 9
- no of insects capable of leaving the infestation site (B) + (C) (Anthonomus adults; 72 hours): 41
- no of insects in test arena, not on diet (C) (Anthonomus adults; 72 hours): 7
- no of insects on diet (B) (Anthonomus adults; 72 hours): 34
- no of insects at infestation site (A) (Anthonomus adults; 78 hours): 5
- no of insects capable of leaving the infestation site (B) + (C) (Anthonomus adults; 78 hours): 45
- no of insects in test arena, not on diet (C) (Anthonomus adults; 78 hours): 6
- no of insects on diet (B) (Anthonomus adults; 78 hours): 39
- no of insects at infestation site (A) (Anthonomus adults; 144 hours): 15
- no of insects capable of leaving the infestation site (B) + (C) (Anthonomus adults; 144 hours): 35
- no of insects in test arena, not on diet (C) (Anthonomus adults; 144 hours): 3
- no of insects on diet (B) (Anthonomus adults; 144 hours): 32
- no of insects at infestation site (A) (Anthonomus adults; 150 hours): 5
- no of insects capable of leaving the infestation site (B) + (C) (Anthonomus adults; 150 hours): 45
- no of insects in test arena, not on diet (C) (Anthonomus adults; 150 hours): 1
- no of insects on diet (B) (Anthonomus adults; 150 hours): 44

Structure (SMILES): CC(=O)N1C(=O)N(NCc2cccnc2)Cc2cc(C(F)(C(F)(F)F)C(F)(F)F)ccc21 [Pyrifluquinazon, 1-acetyl-3,4-dihydro-3-[(3-pyridinylmethyl)amino]-6-[1,2,2,2-tetrafluoro-1-(trifluoromethyl)ethyl]-2(1H)-quinazolinone]
- BP80 (break point for 80% mortality) (Heliothis virescens): >200 ppm
- BP80 (break point for 80% mortality) (Plutella xylostella): >200 ppm
- BP80 (break point for 80% mortality) (Tetranychus urticae): >200 ppm
- % reduction of damaged squares (Anthonomus grandis [3]; 100 g ai/ha, 2 days after 4th application): 77%
- % reduction of damaged squares (Anthonomus grandis [3]; 100 g ai/ha, 7 days after 4th application): 37%
- % reduction of damaged squares (Anthonomus grandis [3]; 200 g ai/ha, 2 days after 4th application): 85%
- % reduction of damaged squares (Anthonomus grandis [3]; 200 g ai/ha, 7 days after 4th application): 48%
- immobility effect disappeared with time (rank order) (Anthonomus adults): PYQU>FLON
- no of insects at infestation site (A) (Anthonomus adults; 3 hours): 45
- no of insects capable of leaving the infestation site (B) + (C) (Anthonomus adults; 3 hours): 5
- no of insects in test arena, not on diet (C) (Anthonomus adults; 3 hours): 1
- no of insects on diet (B) (Anthonomus adults; 3 hours): 4
- no of insects at infestation site (A) (Anthonomus adults; 6 hours): 45
- no of insects capable of leaving the infestation site (B) + (C) (Anthonomus adults; 6 hours): 5
- no of insects in test arena, not on diet (C) (Anthonomus adults; 6 hours): 2
- no of insects on diet (B) (Anthonomus adults; 6 hours): 3
- no of insects at infestation site (A) (Anthonomus adults; 24 hours): 39
- no of insects capable of leaving the infestation site (B) + (C) (Anthonomus adults; 24 hours): 11
- no of insects in test arena, not on diet (C) (Anthonomus adults; 24 hours): 3
- no of insects on diet (B) (Anthonomus adults; 24 hours): 8
- no of insects at infestation site (A) (Anthonomus adults; 32 hours): 27
- no of insects capable of leaving the infestation site (B) + (C) (Anthonomus adults; 32 hours): 23
- no of insects in test arena, not on diet (C) (Anthonomus adults; 32 hours): 4
- no of insects on diet (B) (Anthonomus adults; 32 hours): 19
- no of insects at infestation site (A) (Anthonomus adults; 48 hours): 28
- no of insects capable of leaving the infestation site (B) + (C) (Anthonomus adults; 48 hours): 22
- no of insects in test arena, not on diet (C) (Anthonomus adults; 48 hours): 4
- no of insects on diet (B) (Anthonomus adults; 48 hours): 18
- no of insects at infestation site (A) (Anthonomus adults; 52 hours): 30
- no of insects capable of leaving the infestation site (B) + (C) (Anthonomus adults; 52 hours): 20
- no of insects in test arena, not on diet (C) (Anthonomus adults; 52 hours): 6
- no of insects on diet (B) (Anthonomus adults; 52 hours): 14
- no of insects at infestation site (A) (Anthonomus adults; 72 hours): 30
- no of insects capable of leaving the infestation site (B) + (C) (Anthonomus adults; 72 hours): 20
- no of insects in test arena, not on diet (C) (Anthonomus adults; 72 hours): 6
- no of insects on diet (B) (Anthonomus adults; 72 hours): 14
- no of insects at infestation site (A) (Anthonomus adults; 78 hours): 24
- no of insects capable of leaving the infestation site (B) + (C) (Anthonomus adults; 78 hours): 26
- no of insects in test arena, not on diet (C) (Anthonomus adults; 78 hours): 4
- no of insects on diet (B) (Anthonomus adults; 78 hours): 22
- no of insects at infestation site (A) (Anthonomus adults; 144 hours): 15
- no of insects capable of leaving the infestation site (B) + (C) (Anthonomus adults; 144 hours): 35
- no of insects in test arena, not on diet (C) (Anthonomus adults; 144 hours): 4
- no of insects on diet (B) (Anthonomus adults; 144 hours): 31
- no of insects at infestation site (A) (Anthonomus adults; 150 hours): 15
- no of insects capable of leaving the infestation site (B) + (C) (Anthonomus adults; 150 hours): 35
- no of insects in test arena, not on diet (C) (Anthonomus adults; 150 hours): 2
- no of insects on diet (B) (Anthonomus adults; 150 hours): 33
